From PubChem BioAssay (NCI)
Values joined by “and” are separate entries in the source; they are usually repeats but may differ in a detail not shown here. Equal values may be shown once.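 Where inhibition never reached the appropriate level, the endpoint shown equals the highest concentration tested. Otherwise, values were interpolated linearly from a five-concentration, 48-hour dose response in 96-well plates. GI50: concentration for 50% inhibition of growth. TGI: concentration producing complete growth inhibition.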

What was measured:
Experiment in all cases: inhibition of tumour cell growth, NCI panel, 48 h
A549 NSCLC = system: A549 NSCLC
CCRF-CEM leukemia = system: CCRF-CEM leukemia
IGROV1 ovarian = system: IGROV1 ovarian
NCI-H23 lung = system: NCI-H23 lung
NCI-H460 lung = system: NCI-H460 lung
NCI/ADR-RES ovarian = system: NCI/ADR-RES ovarian
OVCAR-3 ovarian = system: OVCAR-3 ovarian
OVCAR-5 ovarian = system: OVCAR-5 ovarian
SK-OV-3 ovarian = system: SK-OV-3 ovarian
SR leukemia = system: SR leukemia

SMILES	GI50 (A549 NSCLC)	TGI (A549 NSCLC)	GI50 (CCRF-CEM leukemia)	TGI (CCRF-CEM leukemia)	GI50 (IGROV1 ovarian)	TGI (IGROV1 ovarian)	GI50 (NCI-H23 lung)	TGI (NCI-H23 lung)	GI50 (NCI-H460 lung)	TGI (NCI-H460 lung)	GI50 (NCI/ADR-RES ovarian)	TGI (NCI/ADR-RES ovarian)	GI50 (OVCAR-3 ovarian)	TGI (OVCAR-3 ovarian)	GI50 (OVCAR-5 ovarian)	TGI (OVCAR-5 ovarian)	GI50 (SK-OV-3 ovarian)	TGI (SK-OV-3 ovarian)	GI50 (SR leukemia) [µM]	TGI (SR leukemia) [µM]
COC(=O)c1cc2c([nH]c3ccccc32)c(-c2nc3cc(N(S(=O)(=O)c4ccc(C)cc4)S(=O)(=O)c4ccc(C)cc4)c(OC)cc3cc2CO)n1	> 100 µM	> 100 µM	10.3 µM	32 µM	> 100 µM	> 100 µM	> 100 µM	> 100 µM	> 100 µM	> 100 µM	> 100 µM	> 100 µM	> 100 µM	> 100 µM	> 100 µM	> 100 µM	> 100 µM	> 100 µM	1.28	3.48
Cn1c(N)c(N=Nc2ccc(S(N)(=O)=O)cc2)c(=O)n(C)c1=O	–	> 100 µM	–	> 100 µM	–	> 100 µM	–	> 100 µM	–	> 100 µM	–	> 100 µM	–	> 100 µM	–	> 100 µM	–	> 100 µM	–	> 100
O=C(/C=C/CN1CCCCC1)Nc1cc2c(Nc3ccc(F)c(Cl)c3F)ncnc2cc1OCCOC(F)F	0.585 µM	9.92 µM	2.42 µM	10.7 µM	< 0.0182 µM	0.815 µM	1.67 µM	6.99 µM	2.01 µM	11 µM	0.446 µM	3.82 µM	0.284 µM	2.55 µM	0.406 µM	13.6 µM	< 0.0201 µM	0.263 µM	0.598	4.24
N#Cc1ccccc1C#C/C=C\C#Cc1cnccn1	29.8 µM	> 95 µM	3.09 µM	> 100 µM	38.1 µM	> 100 µM	7.04 µM	22.4 µM	39.4 µM	> 100 µM	4.32 µM	> 30.6 µM	1.22 µM	18.3 µM	6.09 µM	> 49.9 µM	52.7 µM	> 100 µM	> 20.7	> 79.7
COc1ccc(/C=C2\CN(Cc3cn(CCCNc4ccnc5cc(Cl)ccc45)nn3)C/C(=C\c3ccc(OC)cc3)C2=O)cc1	5.07 µM	19.5 µM	2.39 µM	7.01 µM	4.86 µM	17.6 µM	10.8 µM	34.5 µM	1.86 µM	3.79 µM	3.15 µM	14.5 µM	4.91 µM	18.1 µM	21 µM	44.2 µM	14.1 µM	30.6 µM	1.69	7.47
CCOC(=O)c1ccccc1NC(c1ccccc1)c1ccc2cccnc2c1O (stereo not drawn)	3.3 µM	> 100 µM	2.32 µM	> 100 µM	4.01 µM	24.1 µM	4.22 µM	> 100 µM	2.82 µM	78.4 µM	2.78 µM	21.4 µM	3.85 µM	23.4 µM	8.64 µM	> 100 µM	3.64 µM	56.4 µM	2.02	10.3
C[CH2][Ge]1([CH2]C)[CH2]CC2(CCN(CCCN(C)C)C2)C[CH2]1	1.44 µM and 2.35 µM	2.93 µM and 4.47 µM	0.709 µM and 1.4 µM	2.33 µM and 2.44 µM	1.75 µM and 4.54 µM	3.42 µM and 10.8 µM	2.47 µM and 4.11 µM	8.19 µM and 8.41 µM	1.44 µM and 2.53 µM	3.05 µM and 4.6 µM	1.83 µM and 5.51 µM	4.58 µM and 13.4 µM	2.15 µM and 2.81 µM	4.99 µM and 6.87 µM	1.84 µM and 2.45 µM	3.8 µM and 5.19 µM	2.64 µM and 3.59 µM	6.11 µM and 9.62 µM	0.231	1.25
COc1cc(C2C3=C(COC3=O)N(CCO)c3cc4c(cc32)CCC4)cc(OC)c1OC (stereo not drawn)	0.13 µM	> 32.5 µM	0.13 µM	> 32.5 µM	0.0732 µM	0.232 µM	0.0903 µM	–	0.106 µM	1.1 µM	0.709 µM	4.45 µM	0.0595 µM	0.129 µM	0.164 µM	> 32.5 µM	0.0978 µM	0.366 µM	0.0692	> 32.5
COc1ccc(/C=C2\CC(C)CC3C2=NN(C(C)=O)C3c2ccc(OC)c(OC)c2)cc1OC (stereo not drawn)	18.7 µM	77.8 µM	20.8 µM	68.8 µM	20.2 µM	50.6 µM	14.9 µM	29.3 µM	15.5 µM	34.9 µM	12.8 µM	43 µM	18 µM	46 µM	17.5 µM	33.8 µM	31 µM	75.7 µM	22.9	74.4
Cn1c([N+](=O)[O-])cnc1/C=C1\Oc2ccc(Cl)cc2C1=O	1.95 µM	5.88 µM	0.199 µM	0.823 µM	1.22 µM	8.29 µM	0.652 µM	4.47 µM	0.352 µM	2.95 µM	0.534 µM	> 22.5 µM	0.307 µM	0.952 µM	2.16 µM	6.53 µM	2.05 µM	7.24 µM	0.0676	–
Cc1nn(-c2ccccc2)c2ncc3c(c12)C(=O)N(Cc1ccccc1)C3=O	5.25 µM	> 100 µM	1.99 µM	16.8 µM	5.37 µM	64.7 µM	9.64 µM	66.1 µM	2.55 µM	> 100 µM	4.46 µM	> 100 µM	3.31 µM	9.84 µM	> 100 µM	> 100 µM	5.73 µM	> 100 µM	5.86	> 100
Nc1cc2[nH]c(=O)c3cc(Cl)ccc3c2cc1Cl	–	44.7 µM	–	> 100 µM	–	23.5 µM	–	72.5 µM	–	18.8 µM	–	86.1 µM	–	29.4 µM	–	> 100 µM	–	15.8 µM	–	> 100
O=C1/C(=C/c2ccc([N+](=O)[O-])s2)Oc2ccc(Cl)cc21	0.533 µM	2.45 µM	0.273 µM	0.72 µM	0.311 µM	0.983 µM	0.592 µM	1.82 µM	0.675 µM	2.18 µM	0.738 µM	2.89 µM	0.229 µM	0.48 µM	1.53 µM	3.01 µM	2.1 µM	4.42 µM	0.204	0.73
COc1c(C)cnc(Cn2cnc3c(Cl)nc(N)nc32)c1C	0.179 µM	> 100 µM	0.097 µM	> 100 µM	0.455 µM	> 100 µM	0.262 µM	19.8 µM	0.0974 µM	> 100 µM	0.509 µM	> 100 µM	0.658 µM	> 100 µM	1.13 µM	> 100 µM	0.23 µM	> 70.6 µM	0.117	> 100
CCCCc1ccc(C(N)=O)nc1	> 100 µM	> 100 µM	> 100 µM	> 100 µM	> 100 µM	> 100 µM	> 100 µM	> 100 µM	> 100 µM	> 100 µM	> 100 µM	> 100 µM	> 100 µM	> 100 µM	> 100 µM	> 100 µM	> 100 µM	> 100 µM	> 100	> 100
Cc1cccc(NC(=O)c2sc3nc4c(cc3c2N)CCC4)c1C	0.453 µM	13.5 µM	0.321 µM	35.8 µM	0.766 µM	53 µM	0.749 µM	> 100 µM	0.382 µM	13.1 µM	0.279 µM	10.3 µM	0.308 µM	1.47 µM	0.531 µM	62.6 µM	0.379 µM	18.4 µM	0.191	10.2
CN1CCN(Cc2ccc(NC(=O)c3cncc(C#Cc4c(N)ncc5ccc(F)cc45)c3)cc2C(F)(F)F)CC1	0.96 µM	6.21 µM	0.553 µM	3.73 µM	0.369 µM	6.43 µM	0.574 µM	4.58 µM	0.647 µM	3.33 µM	1.89 µM	5.83 µM	4.07 µM	16.5 µM	0.524 µM	1.27 µM	5.96 µM	13.6 µM	0.809	11.3
